Laboratory results reported in ChEMBL document CHEMBL1138323 (J Med Chem, 2007).
≈ marks a conversion by molar mass, not a printed value.

Assays:
Rattus norvegicus [1] = species: Rattus norvegicus; experiment: Protective index, ratio of TD50 for Sprague-Dawley rat by rotarod test to ED50 for Sprague-Dawley rat by MES test; format: functional
Rattus norvegicus [2] = species: Rattus norvegicus; experiment: Protective index, ratio of TD50 for Sprague-Dawley rat by rotarod test to ED50 for Sprague-Dawley rat by scMET test; format: functional
Mus musculus [3] = species: Mus musculus; experiment: Anticonvulsant activity in Albino CF1 mouse by 6-Hz psychomotor seizure test at 32 mA current; format: functional
Mus musculus [4] = species: Mus musculus; experiment: Anticonvulsant activity in Albino CF1 mouse by 6-Hz psychomotor seizure test at 44 mA current; format: functional
[5] = Neurotoxicity in Albino CF1 mouse by rotarod test; format: toxicity, organism-based; conditions: in vivo
Mus musculus [6] = species: Mus musculus; experiment: Protective index, ratio of TD50 for Albino CF1 mouse to ED50 for Albino CF1 mouse by 6-Hz psychomotor seizure test at 32 mA current; format: functional
Mus musculus [7] = species: Mus musculus; experiment: Protective index, ratio of TD50 for Albino CF1 mouse to ED50 for Albino CF1 mouse by 6-Hz psychomotor seizure test at 44 mA current; format: functional
[8] = Solubility in water; format: physicochemical
Rattus norvegicus [9] = species: Rattus norvegicus; experiment: Anticonvulsant activity in Sprague-Dawley rat by maximal electroshock seizure test; format: functional
Rattus norvegicus [10] = experiment: Anticonvulsant activity in Sprague-Dawley rat by subcutaneous pentylenetetrazole test; format: functional; conditions: sc
[11] = Neurotoxicity in Sprague-Dawley rat by rotarod test; format: toxicity, organism-based; conditions: in vivo
Mus musculus [12] = experiment: Teratogenic effect in Swiss Webster Vancouver mouse assessed as embryo lethality at 205 mg/kg, ip; format: toxicity, organism-based; set-up: dose 205 mg/kg, route intraperitoneal; conditions: in vivo
Mus musculus [13] = experiment: Teratogenic effect in Swiss Webster Vancouver mouse assessed as embryo lethality at 503 mg/kg, ip; format: toxicity, organism-based; set-up: dose 503 mg/kg, route intraperitoneal; conditions: in vivo
[14] = Teratogenic effect in Swiss Webster Vancouver mouse assessed as embryo lethality at 336 mg/kg, ip; format: toxicity, organism-based; set-up: dose 336 mg/kg, route intraperitoneal; conditions: in vivo, read-out: Activity
Mus musculus [15] = experiment: Teratogenic effect in Swiss Webster Vancouver mouse assessed as exencephaly at 205 mg/kg, ip; format: toxicity, organism-based; set-up: dose 205 mg/kg, route intraperitoneal; conditions: in vivo
Mus musculus [16] = experiment: Teratogenic effect in Swiss Webster Vancouver mouse assessed as exencephaly at 503 mg/kg, ip; format: toxicity, organism-based; set-up: dose 503 mg/kg, route intraperitoneal; conditions: in vivo
Mus musculus [17] = experiment: Teratogenic effect in Swiss Webster Vancouver mouse assessed as exencephaly at 336 mg/kg, ip; format: toxicity, organism-based; set-up: dose 336 mg/kg, route intraperitoneal; conditions: in vivo
Mus musculus [18] = experiment: Teratogenic effect in Swiss Webster Vancouver mouse assessed as embryo lethality at 520 mg/kg, ip; format: toxicity, organism-based; set-up: dose 520 mg/kg, route intraperitoneal; conditions: in vivo
Mus musculus [19] = experiment: Teratogenic effect in Swiss Webster Vancouver mouse assessed as exencephaly at 520 mg/kg, ip; format: toxicity, organism-based; set-up: dose 520 mg/kg, route intraperitoneal; conditions: in vivo
Mus musculus [20] = experiment: Teratogenic effect in Swiss Webster Vancouver mouse assessed as embryo lethality at 261 mg/kg, ip; format: toxicity, organism-based; set-up: dose 261 mg/kg, route intraperitoneal; conditions: in vivo
Mus musculus [21] = experiment: Teratogenic effect in Swiss Webster Vancouver mouse assessed as embryo lethality at 167 mg/kg, ip; format: toxicity, organism-based; set-up: dose 167 mg/kg, route intraperitoneal; conditions: in vivo
Mus musculus [22] = experiment: Teratogenic effect in Swiss Webster Vancouver mouse assessed as exencephaly at 261 mg/kg, ip; format: toxicity, organism-based; set-up: dose 261 mg/kg, route intraperitoneal; conditions: in vivo
Mus musculus [23] = experiment: Teratogenic effect in Swiss Webster Vancouver mouse assessed as exencephaly at 167 mg/kg, ip; format: toxicity, organism-based; set-up: dose 167 mg/kg, route intraperitoneal; conditions: in vivo
Mus musculus [24] = experiment: Induction of lethality in Swiss Webster Vancouver mouse dams at 3.6 mmol/kg, ip after 24 hrs; format: organism-based; conditions: in vivo
Mus musculus [25] = experiment: Induction of lethality in Swiss Webster Vancouver mouse dams at 2.7 mmol/kg, ip after 24 hrs; format: organism-based; conditions: in vivo
Mus musculus [26] = experiment: Induction of lethality in Swiss Webster Vancouver mouse dams at 1.8 mmol/kg, ip after 24 hrs; format: organism-based; conditions: in vivo

SMILES | Ratio TD50/ED50 (Rattus norvegicus [1]) | Ratio TD50/ED50 (Rattus norvegicus [2]) | ED50 (Mus musculus [3]) | ED50 (Mus musculus [4]) | TD50 [5] | Ratio TD50/ED50 (Mus musculus [6]) | Ratio TD50/ED50 (Mus musculus [7]) | solubility [8] | ED50 (Rattus norvegicus [9]) | ED50 (Rattus norvegicus [10]) | TD50 [11] | also measured
CC(C)C(C(=O)NC(N)=O)C(C)C | 1.7 | 3.5 | 43 mg/kg | 49 mg/kg | > 50 mg/kg | <2.3 | <2 | 270 µg/mL (≈ 1450 µM) |  |  |  | 
CC(C)C(C(N)=O)C(C)C | 1.4 | 1.2 | > 100 mg/kg | > 100 mg/kg |  |  |  |  | 51 mg/kg | 60 mg/kg | 72 mg/kg | 
CCC[C@@H](C(=O)NC(N)=O)C(C)C | 3.4 | 5.6 | 43 mg/kg | 56 mg/kg | 118 mg/kg | 2.7 | 2.1 |  | 36 mg/kg | 22 mg/kg | 124 mg/kg | Activity (Mus musculus [12]): 7.1%; Activity (Mus musculus [13]): 65.7%; mortality [14]: 54.4%; Activity (Mus musculus [15]): 0%; Activity (Mus musculus [16]): 17.5%; Activity (Mus musculus [17]): 15.4%
CCC[C@H](C(=O)NC(N)=O)C(C)C | 6.5 | 3.2 | 46 mg/kg | 75 mg/kg | 100 mg/kg | <6.5 | <4 |  | 18 mg/kg | 37 mg/kg | 118 mg/kg | Activity (Mus musculus [12]): 6.8%; Activity (Mus musculus [13]): 40.7%; mortality [14]: 10.2%; Activity (Mus musculus [15]): 0.8%; Activity (Mus musculus [16]): 4.3%; Activity (Mus musculus [17]): 5.7%
CCCC(CCC)C(=O)O [VALPROIC ACID] |  |  |  |  |  |  |  | 1300 µg/mL (≈ 9010 µM) |  |  |  | 
CCCC(C(=O)NC(N)=O)C(C)C (racemic) | 5.9 | 2.1 | 42 mg/kg |  | 50 mg/kg | <2 | <1.4 | 130 µg/mL (≈ 698 µM) |  |  | 95 mg/kg | 
CCC[C@@H](C(=O)O)C(C)C |  |  |  |  |  |  |  |  |  |  |  | Activity (Mus musculus [18]): 4.3%; Activity (Mus musculus [19]): 0%
CCCC(CCC)C(=O)NC(N)=O | 4.3 | 3 | 58 mg/kg | 105 mg/kg | > 50 mg/kg | <1.7 |  | 120 µg/mL (≈ 644 µM) | 54 mg/kg | 77 mg/kg |  | Activity (Mus musculus [20]): 41.2%; Activity (Mus musculus [21]): 12.9%; Activity (Mus musculus [22]): 13.7%; Activity (Mus musculus [23]): 0.9%; Activity (Mus musculus [24]): Toxic
CCCC(C(N)=O)C(C)C (racemic) | 1.7 | 3.2 |  |  |  |  |  |  | 50 mg/kg | 27 mg/kg | 87 mg/kg | 
CCCC(C(=O)O)C(C)C (racemic) |  |  | 149 mg/kg |  | > 300 mg/kg | >2 |  |  |  |  |  | Activity (Mus musculus [18]): 5.5%; Activity (Mus musculus [19]): 0%
CCCCCCCC(=O)NC(N)=O | 1.4 | 1.2 |  |  |  |  |  | < 50 µg/mL | > 300 mg/kg | > 300 mg/kg | > 300 mg/kg | 
CCCC(CCC)C(N)=O [VALPROMIDE] |  |  |  |  |  |  |  | 3700 µg/mL (≈ 25800 µM) |  |  |  | 
CCC[C@H](C(=O)O)C(C)C |  |  |  |  |  |  |  |  |  |  |  | Activity (Mus musculus [18]): 5.8%; Activity (Mus musculus [19]): 0%
CCC[C@H](C(N)=O)C(C)C | 1.3 | 2.2 |  |  |  |  |  |  | 63 mg/kg | 38 mg/kg | 83 mg/kg | 
CCC[C@@H](C(N)=O)C(C)C | 1.7 | 3.7 |  |  |  |  |  |  | 47 mg/kg | 22 mg/kg | 82 mg/kg | 
CCC(C)C(CC)C(=O)NC(N)=O (configuration not stated) [CAPURIDE] | 4 | 6.9 |  |  | 50 mg/kg | <4.7 | <2.1 | 280 µg/mL (≈ 1500 µM) |  |  | 97 mg/kg | Activity (Mus musculus [12]): 39%; Activity (Mus musculus [15]): 2.7%; Activity (Mus musculus [25]): Toxic; Activity (Mus musculus [26]): Toxic
